This note sets out measurements from patent publication US20040072746A1, “Inhibitors of monocarboxylate transport” (priority 2001, published 2004).

The target in one experiment is T1, MCT1 (Homo sapiens, UniProt P53985, D490E).
T1 sequence (P53985 1-500 D490E): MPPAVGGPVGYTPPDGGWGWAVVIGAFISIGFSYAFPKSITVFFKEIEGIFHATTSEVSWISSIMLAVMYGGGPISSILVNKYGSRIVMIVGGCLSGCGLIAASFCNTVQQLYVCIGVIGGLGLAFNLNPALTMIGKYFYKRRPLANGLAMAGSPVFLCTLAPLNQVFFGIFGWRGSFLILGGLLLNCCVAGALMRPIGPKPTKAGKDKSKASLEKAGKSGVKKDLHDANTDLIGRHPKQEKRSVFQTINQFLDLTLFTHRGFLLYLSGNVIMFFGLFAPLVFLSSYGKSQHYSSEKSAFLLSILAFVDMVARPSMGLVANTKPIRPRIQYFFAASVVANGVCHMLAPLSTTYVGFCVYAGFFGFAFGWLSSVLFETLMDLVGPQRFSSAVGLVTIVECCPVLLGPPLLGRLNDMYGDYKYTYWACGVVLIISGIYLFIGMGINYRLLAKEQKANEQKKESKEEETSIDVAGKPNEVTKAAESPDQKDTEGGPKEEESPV
The experiment can be described thus: MCT filter binding assay, yeast membranes, radioligand specific binding. Also noted: made in house; host or cells: Saccharomyces cerevisiae BY4742 (jen1 deletion), membrane preparation; plasmid pACES14-hMCT1. To be noted: ~2.5 nM radioligand. On the procedure:
(§1) For yeast cells transformed with expression plasmids containing the human MCT 1-4 ORFs the ability of membrane preparations to bind radioligand was determined using a single ligand concentration/multi protein concentration binding assay. This generated an estimate of the amount of active binding protein present in each membrane preparation. The ligand concentration used will give an estimate of Bmax that is approximately 90% of the true value. 10 μl of ligand A, B or C that had been diluted 50 fold with assay buffer (50 mM HEPES, 0.1 mM EDTA, 0.15 M NaCl, pH 7.5, 0.5% BSA) was dispensed into wells of a polypropylene microtitre plate. This gives a final radiolabelled ligand concentration of ˜2.5 nM. […] The membranes were diluted to give a known amount/180 μl assay buffer. This is typically in the […] range. For the membranes with high binding site number a more dilute membrane preparation should be added. 180 μl of each membrane solution was then added to each well and incubated at 2 hours at room temperature with shaking. The membranes were harvested onto GF-B filter plates and washed with assay buffer without BSA, dried, scintillant added and counts detected using the relevant program for each ligand on a Packard Top Count plate reader.

Experiment [1] is described as follows: MCT filter binding assay, yeast membranes transformed with vector only. The following applies: ~2.5 nM radioligand. On the procedure:
as §1

Consider `CC(C)Cc1nn(C)c(=O)c2c(SCCCO)n(Cc3ccccc3[125I])cc12` [Ligand A, 2,6-Dihydro-7-[(3-hydroxypropyl)thio]-6-[(2-[^125I]iodophenyl)methyl]-2-methyl-4-(2-methylpropyl)-1H-pyrrolo[3,4-d]pyridazin-1-one], for which the “Specific binding (cpm) Average” value at MCT1 (MCT1 (2 ug)) was determined as 88841 cpm; on MCT1 (MCT1 (20 ug)), 177453 cpm; in experiment [1] (vector (2 ug)), 1735 cpm; in experiment [1] (vector (20 ug)) it was 0 cpm.
